In ChEMBL document CHEMBL4616635, “Investigations of antiproliferative and antioxidant activity of β-lactam morpholino-1,3,5-triazine hybrids” (Bioorg Med Chem, 2020) one finds IC50 data, which are given here for 22 compounds.

Assay [1] concerns MCF7. Put plainly: Antiproliferative activity against human MCF7 cells assessed as inhibition of cell growth after overnight incubation by MTT assay. The format is functional, cell-based. (In general: Formazan colour is commonly taken as a measure of viable cells.)
Assay [2] relates to HepG2. Put plainly: Antiproliferative activity against human HepG2 cells assessed as inhibition of cell growth after overnight incubation by MTT assay. The format is functional, cell-based.
The test system of assay [3] is SW 1116. Put plainly: Antiproliferative activity against human SW1116 cells assessed as inhibition of cell growth after overnight incubation by MTT assay. Format: functional, cell-based.
Assay [4] can be described thus: Antioxidant activity assessed as DPPH radical scavenging activity measured for 5 mins by UV absorbance analysis. Format: functional.
Assay [5] has as its system HEK293. Description: Cytotoxicity against human HEK293 cells assessed as inhibition of cell growth after overnight incubation by MTT assay. Format: cell-based.

Converted amounts (≈) assume the structure as drawn.

The IC50 is the concentration needed to halve the response being measured. For `O=C1[C@@H](Oc2ccc(Cl)cc2)[C@@H](c2ccc(Oc3nc(N4CCOCC4)nc(N4CCOCC4)n3)cc2)N1c1ccc(Nc2nc(N3CCOCC3)nc(N3CCOCC3)n2)cc1`, the IC50 in assay [1] was over 100 µM; in assay [2], over 100 µM; in assay [3], over 100 µM; in assay [4], over 10000 µg/mL; in assay [5], over 100 µM.
Regarding `C(=N\c1ccc(Nc2nc(N3CCOCC3)nc(N3CCOCC3)n2)cc1)/c1ccc(Oc2nc(N3CCOCC3)nc(N3CCOCC3)n2)cc1`, the IC50 in assay [1] is over 100 µM; in assay [2], over 100 µM; in assay [3], over 100 µM; in assay [4] it was over 10000 µg/mL; in assay [5], over 100 µM.
For the compound `Clc1ccc(/C=N/c2ccc(Nc3nc(N4CCOCC4)nc(N4CCOCC4)n3)cc2)cc1`, the IC50 in assay [1] was over 100 µM; in assay [2] it was over 100 µM; in assay [3], 93.4 µM; in assay [4] it was 275 µg/mL (≈ 0.573 mM); in assay [5] it was over 100 µM.
Regarding `COc1ccc(N2C(=O)[C@@H](Oc3ccccc3)[C@H]2c2ccc(Oc3nc(N4CCOCC4)nc(N4CCOCC4)n3)cc2)cc1`, the IC50 in assay [1] was over 100 µM; in assay [2] it was over 100 µM; in assay [3], over 100 µM; in assay [4], over 10000 µg/mL; in assay [5], over 100 µM.
Turning to `O=[N+]([O-])c1cccc(/C=N/c2ccc(Nc3nc(N4CCOCC4)nc(N4CCOCC4)n3)cc2)c1`, the IC50 in assay [1] was over 100 µM; in assay [2] it was over 100 µM; in assay [3], 15.1 µM; in assay [4] it was 445 µg/mL (≈ 0.907 mM); in assay [5], over 100 µM.
Turning to `COc1ccc(N2C(=O)C3(c4ccccc4Oc4ccccc43)C2c2ccc(Oc3nc(N4CCOCC4)nc(N4CCOCC4)n3)cc2)cc1` (centres undefined), the IC50 in assay [1] is over 100 µM; in assay [2], over 100 µM; in assay [3] it was 38.4 µM; in assay [4], over 10000 µg/mL; in assay [5], over 100 µM.
As for `COc1ccc(/N=C/c2ccc(Oc3nc(N4CCOCC4)nc(N4CCOCC4)n3)cc2)cc1`, the 50% inhibitory concentration (IC50) in assay [1] was over 100 µM; in assay [2] it was over 100 µM; in assay [3], over 100 µM; in assay [4], 195 µg/mL (≈ 0.409 mM); in assay [5], over 100 µM.
For the compound `O=C1N(c2ccc(Nc3nc(N4CCOCC4)nc(N4CCOCC4)n3)cc2)C(c2ccc([N+](=O)[O-])cc2)C12c1ccccc1Oc1ccccc12` (centres undefined), the IC50 in assay [1] is over 100 µM; in assay [2], over 100 µM; in assay [3], over 100 µM; in assay [4], over 10000 µg/mL; in assay [5], over 100 µM.
On to `CCOc1ccc(/N=C/c2ccc(Oc3nc(N4CCOCC4)nc(N4CCOCC4)n3)cc2)cc1`, for which the IC50 in assay [1] is over 100 µM; in assay [2], over 100 µM; in assay [3] it was over 100 µM; in assay [4], 50 µg/mL (≈ 0.102 mM); in assay [5], over 100 µM.
Take `CN(C)c1ccc(/N=C/c2ccc(Oc3nc(N4CCOCC4)nc(N4CCOCC4)n3)cc2)cc1`: the 50% inhibitory concentration (IC50) is over 100 µM in assay [1]; over 100 µM in assay [2]; 15.6 µM in assay [3]; 30 µg/mL (≈ 0.0613 mM) in assay [4]; over 100 µM in assay [5].
Consider `O=C1N(c2ccc(Nc3nc(N4CCOCC4)nc(N4CCOCC4)n3)cc2)C(c2cccc([N+](=O)[O-])c2)C12c1ccccc1Oc1ccccc12` (centres undefined), for which the IC50 was over 100 µM in assay [1]; over 100 µM in assay [2]; over 100 µM in assay [3]; over 10000 µg/mL in assay [4]; over 100 µM in assay [5].
For the compound `O=C1[C@@H](Oc2ccccc2)[C@@H](c2ccc(Oc3nc(N4CCOCC4)nc(N4CCOCC4)n3)cc2)N1c1ccc(Nc2nc(N3CCOCC3)nc(N3CCOCC3)n2)cc1` (relative stereo), the IC50 was over 100 µM in assay [1]; over 100 µM in assay [2]; over 100 µM in assay [3]; over 10000 µg/mL in assay [4]; over 100 µM in assay [5].
With `CCOc1ccc(N2C(=O)[C@@H](Oc3ccc(Cl)cc3)[C@H]2c2ccc(Oc3nc(N4CCOCC4)nc(N4CCOCC4)n3)cc2)cc1` (relative stereo), the IC50 in assay [1] is over 100 µM; in assay [2], over 100 µM; in assay [3], 1.53 µM; in assay [4], over 10000 µg/mL; in assay [5], over 100 µM.
With `O=C1[C@@H](Oc2ccc(Cl)cc2Cl)[C@@H](c2cccc([N+](=O)[O-])c2)N1c1ccc(Nc2nc(N3CCOCC3)nc(N3CCOCC3)n2)cc1` (relative stereo), the IC50 in assay [1] was over 100 µM; in assay [2], over 100 µM; in assay [3] it was over 100 µM; in assay [4], over 10000 µg/mL; in assay [5] it was over 100 µM.
In the case of `CCOc1ccc(N2C(=O)[C@@H](Oc3ccccc3)[C@H]2c2ccc(Oc3nc(N4CCOCC4)nc(N4CCOCC4)n3)cc2)cc1` (relative stereo), the concentration for half-maximal inhibition (IC50) in assay [1] is over 100 µM; in assay [2], over 100 µM; in assay [3], over 100 µM; in assay [4], 5900 µg/mL (≈ 9.44 mM); in assay [5], over 100 µM.
Take `COc1ccc(N2C(=O)[C@@H](Oc3ccc(Cl)cc3Cl)[C@H]2c2ccc(Oc3nc(N4CCOCC4)nc(N4CCOCC4)n3)cc2)cc1` (relative stereo): the IC50 in assay [1] is over 100 µM; in assay [2], over 100 µM; in assay [3] it was 2.7 µM; in assay [4], 9600 µg/mL (≈ 14.1 mM); in assay [5], over 100 µM.
For `O=C1[C@@H](Oc2ccc(Cl)cc2Cl)[C@@H](c2ccc(Oc3nc(N4CCOCC4)nc(N4CCOCC4)n3)cc2)N1c1ccc(Nc2nc(N3CCOCC3)nc(N3CCOCC3)n2)cc1` (relative stereo), the IC50 in assay [1] is over 100 µM; in assay [2], over 100 µM; in assay [3] it was over 100 µM; in assay [4], over 10000 µg/mL; in assay [5] it was over 100 µM.
As to `COc1ccc(N2C(=O)[C@@H](Oc3ccc(Cl)cc3)[C@H]2c2ccc(Oc3nc(N4CCOCC4)nc(N4CCOCC4)n3)cc2)cc1` (relative stereo), the IC50 in assay [1] was over 100 µM; in assay [2], over 100 µM; in assay [3], 30 µM; in assay [4], 6200 µg/mL (≈ 9.61 mM); in assay [5], over 100 µM.
On to `O=C1[C@@H](Oc2ccc(Cl)cc2)[C@@H](c2ccc(Cl)cc2)N1c1ccc(Nc2nc(N3CCOCC3)nc(N3CCOCC3)n2)cc1` (relative stereo), for which the IC50 was over 100 µM in assay [1]; over 100 µM in assay [2]; over 100 µM in assay [3]; over 10000 µg/mL in assay [4]; over 100 µM in assay [5].
For the compound `O=C1[C@@H](Oc2ccc(Cl)cc2Cl)[C@@H](c2ccc(Cl)cc2)N1c1ccc(Nc2nc(N3CCOCC3)nc(N3CCOCC3)n2)cc1` (relative stereo), the IC50 in assay [1] was over 100 µM; in assay [2], over 100 µM; in assay [3], 86.2 µM; in assay [4] it was over 10000 µg/mL; in assay [5] it was over 100 µM.
Consider `O=C1O[C@H]([C@@H](O)CO)C(O)=C1O` [ASCORBIC ACID], for which, in assay [4], the IC50 worked out at 195 µg/mL (≈ 1.11 mM).
`COc1cccc2c1C(=O)c1c(O)c3c(c(O)c1C2=O)C[C@@](O)(C(=O)CO)C[C@@H]3O[C@H]1C[C@H](N)[C@H](O)[C@H](C)O1` [DOXORUBICIN]: the IC50 in assay [2] is 7.3 µM; in assay [3], 6.9 µM; in assay [5], 6.1 µM.
